# Entries after “also recorded” stand apart in the source; their conditions may differ.
# Key:
# [1] = Chemical stability in phosphate buffered saline (PBS); assay type: physicochemical; conditions: Table 2A, 50 μM prodrug
# Summary of the method: (§1)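 Incubations used 50 μM compound at 37 °C in phosphate buffered saline, fasted simulated intestinal fluid without pancreatin, or fasted simulated gastric fluid without pepsin.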
# [2] = Chemical stability in simulated intestinal fluid (SIF) without pancreatin; assay type: physicochemical; conditions: Table 2A, 50 μM prodrug
# Protocol: Chemical stability of creatine prodrugs in phosphate buffered saline (PBS), simulated intestinal fluid (SIF) without pancreatin, simulated gastric fluid (SGF) without pepsin were determined by LC-UV, LC-CAD, LC-UV-CAD or LC-MS/MS as appropriate. Creatine prodrugs of the present disclosure (50 μM) were incubated at 37° C. according to described protocols and prodrug levels were compared between t=0, t=15, t=60, and t=120 mins by peak area ratio to determine the percentage remained at t=120 mins (2 h).
# Protocol for PBS, SIF and SGF stability for screening:
# Prodrugs (50 μM) were incubated in PBS, FaSSIF (Biorelevant) or FaSSGF (Biorelevant) at 37° C.
# [3] = Chemical stability in simulated gastric fluid (SGF) without pepsin; assay type: physicochemical; conditions: Table 2A, 50 μM prodrug
# Summary of the method: as §1
# [4] = biological target: T1, recombinant human FAAH enzyme (rFAAH) (Homo sapiens, UniProt O00519); experiment: Direct prodrug cleavage with recombinant human FAAH enzyme (rFAAH): d3-Cr release and d3-Crn cyclization; assay type: biochemical; conditions: 200 μM prodrug, 3 h, % of nominal input; for Prodrug Cleavage rFAAH net d3-Cr release: negative control subtracted
# T1 sequence (O00519 1-579): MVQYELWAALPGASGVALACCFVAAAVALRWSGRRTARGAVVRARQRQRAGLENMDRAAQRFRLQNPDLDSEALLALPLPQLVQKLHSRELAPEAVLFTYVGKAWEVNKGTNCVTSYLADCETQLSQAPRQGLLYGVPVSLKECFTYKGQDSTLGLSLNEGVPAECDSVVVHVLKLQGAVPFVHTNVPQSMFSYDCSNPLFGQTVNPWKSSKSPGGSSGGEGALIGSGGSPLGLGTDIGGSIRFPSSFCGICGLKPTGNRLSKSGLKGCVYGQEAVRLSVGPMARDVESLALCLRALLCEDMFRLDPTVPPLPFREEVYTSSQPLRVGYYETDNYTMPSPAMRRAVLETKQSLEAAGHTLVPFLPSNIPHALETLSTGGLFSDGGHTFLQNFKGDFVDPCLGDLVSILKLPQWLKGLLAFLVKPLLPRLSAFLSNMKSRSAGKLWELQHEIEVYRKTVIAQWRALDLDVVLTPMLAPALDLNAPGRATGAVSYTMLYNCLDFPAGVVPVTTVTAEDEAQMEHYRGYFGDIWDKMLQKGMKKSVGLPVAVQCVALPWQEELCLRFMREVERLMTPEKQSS
# Protocol: (§2) For assessment of the ability of prodrugs to release creatine, and to release creatine preferentially to unwanted cyclization to creatinine, d3-labeled (deuterium labeled methyl group) prodrugs are incubated with brain homogenates (e.g., mouse, human) specially prepared to preserve FAAH activity or with rFAAH for direct cleavage study. The use of d3-labelled prodrugs is essential in order to distinguish prodrug-derived creatine (d3-creatine) from high concentrations of endogenous (non-labeled) creatine. […] Prodrugs are tested at final concentrations of 20 μM and 200 μM. Approximately 3-4 mg of homogenate is used for each reaction. Co-factor (NADPH) is included at a final concentration of 1 mM. FAAH activity is confirmed by conversion of 7-amino-4-methyl Coumarin-Arachidonamide to 7-amino-4-methyl Coumarin by fluorescent assay. Negative controls include incubations without brain homogenate/rFAAH (but with NADPH) or 65° C. heat inactivated brain homogenate/rFAAH to assess non-enzymatic prodrug cleavage under the conditions of the assay and FAAH inhibitor […] at the concentration of 1 μM. Prodrug incubations are prepared by addition of 8 μL of prodrug stock solution (500 or 5000 μM in DMSO or DMSO/methanol) to assay buffered, followed by addition of brain homogenate/rFAAH. […] The samples are centrifuged at 15890×g for 10 minutes at 4° C., followed by transfer of the supernatants for storage at −20° C. pending LC-MS/MS analysis. Sample supernatants are analyzed by LC-MS/MS for determination of d3-prodrug, d3-creatine and d3-creatinine levels.
# (§3) Deuterated creatine prodrugs were tested in 3 different in vitro assays to assess d3-creatine (d3-Cr) release and cyclization to form d3-creatinine (d3-Crn). These assays were 1) direct cleavage with recombinant human FAAH enzyme (rFAAH), 2) cleavage in mouse brain homogenates (MBH), and 3) human brain homogenates (HBH).
# (§4) Creatine prodrug cleavage efficiency was determined by percentage of net d3-Cr release in μM (positive reaction subtracted from negative control of no brain homogenate/rFAAH or inactivated brain homogenate/rFAAH) over nominal input concentration of 200 μM prodrug at 3 h. Propensity for creatinine cyclization was determined by percentage of d3-Crn generated in μM in positive reaction over nominal input concentration of 200 μM prodrug at 3 h.
# [5] = Prodrug cleavage in human brain homogenates (HBH): d3-Cr release and d3-Crn cyclization; assay type: in vitro ADME; conditions: for Prodrug Cleavage Human BH d3-Crn release / Prodrug Cleavage Human BH net d3-Cr release: 200 μM prodrug, 3 h, % of nominal input; for Prodrug Cleavage Human BH net d3-Cr release: negative control subtracted
# Protocol: as §2, §3, §4
# ARPE-19 cells = experiment: Creatine prodrug uptake and d3-creatine release in ARPE-19 cells (Table 4A); assay type: cell-based, human; conditions: 50 μM, 6 h, cytosol fraction, corrected for total protein
# Protocol: At the end of the incubation, supernatant will be collected from each well to assess prodrug recovery. Cells are then washed 3× with PBS. Plates, prodrugs in supernatant, prodrugs in serum-free medium are stored at −80° C. until harvest (within 5 days). On the day of extraction, 130 uL of lysis buffer (10 mM Tris pH 7.4) with EDTA-free protease inhibitors is added to each well and cells are removed using a cell scraper. Lysates are further homogenized using a handheld pestle and then centrifuged at 16,000 g, […], for 10 minutes to collect cytosol fraction. Pellets will be stored at −80° C. until further analysis. A 4× volume of stop solution (80% ACN/20% water) will be added to the cytosol fraction, supernatant and medium. Samples will be centrifuged at 15,890 g (13,000 rpm) at 4° C. for 10 mins. Supernatant will be collected and stored at −80° C. within 5 days prior to LC-MS/MS analysis. Dosing solutions for each prodrug (10 μM) will be assayed to verify concentration. Cells alone with vehicle will serve as controls to assess background signal for LC-MS/MS. Two independent runs of experiment will be conducted.
# Nine fatty acid amide creatine prodrugs were tested in human ARPE-19 cells to assess prodrug uptake and d3-Cr release inside the cells. 50 μM of prodrug was incubated in culture medium with the cells and the cells were harvested at 6 h. Quantitation of prodrugs, d3-Cr (d3-creatine) and d3-Cm (d3-creatinine) in the cytosol fraction was corrected for total protein concentration.
# [6] = d3-Creatine and d3-creatinine concentration in CrT KO mice brain after IV bolus dose (FIGS. 3 and 4, Table 6); assay type: in vivo; conditions: CrT KO mice brain, 8 h after IV bolus dose
# Protocol: The brain concentrations of d3-creatine and d3-creatinine was measured in CrT KO mice following 10 mg/kg single dose IV bolus dose of compound 14 and 15 (FIGS. 3 and 4). As shown by FIG. 3, brain d3-creatine concentration was higher following administration of compound 15 compared to compound 14. […] Without bound to any theory, the macrocyclic compound 15 prodrug reduces d3-creatine cyclization to d3-creatinine when compared to linear compound 14 prodrug.
# The concentration of d3-creatine in CrT KO mice brain were also measured for other compounds disclosed in the present application as shown in Table 6. The concentrations of d3-creatine, d3-creatinine and creatine prodrugs are measured by LC-MS/MS. The brain sample is homogenized with 4× (weight to volume) of KPI 100 mM buffer containing anti-proteases and anti-phosphatases (if needed). 50 μl of brain homogenate is then de-proteinized using 4× volume/volume of a solution containing 80% acetonitrile and 20% water with bucetin, d5-Cr (internal standard). The plate is then spun at 4000 rpm, 10 minutes, 4° C. and samples are transferred to a new plate for bioanalysis. Each analyte in each sample was quantitated against a curve in matching biomatrix using an authentic standard.
# [7] = In vivo IV dosing in CrT KO mice: prodrug, d3-Cr and d3-Crn in brain (Table 5)
# Protocol: A creatine prodrug is administered as an intravenous bolus injection to groups of three to six adult male CD1 mice at an appropriate creatine prodrug dose equivalent per kg body weight. Animals are conscious at the time of the experiment. Blood samples (0.3 mL) are obtained via a jugular vein cannula at intervals over 8 hours following IV dosing. Blood is processed into plasma, then the plasmais immediately frozen at −80° C. until analyzed by LC-MS/MS. Samples may also be taken form the CSF or other appropriate biological fluid. Brains were collected and flash frozen immediately in liquid nitrogen. Brains were homogenized in 100 mM KPI buffer with a cocktail of anti-proteases on the same day as the sample preparation required for LC-MS/MS analysis.
# Several prodrugs with either free COOH group and ester linkage and macrocycles were selected for IV dosing in animal study to assess PK and d3-Cr release in brain in vivo. Prodrugs were IV dosed in CrT KO mice at 10, 15, or 25 mg/kg in animal studies. Mouse brain homogenates (MBH) were prepared from brains collected from mice after dosing. Levels of prodrug, d3-Cr and d3-Crn were quantified in brain and expressed in brain concentration (for macrocycle prodrugs) or AUC (for linear prodrugs) over time. Very few prodrugs were detected in MBH.
# [8] = Plasma stability, human plasma; assay type: in vitro ADME; conditions: Table 2A, 37 °C, read-out: Plasma Stability Human t1/2
# Summary of the method: (§5)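 Half-life (min) from LC-MS/MS of acetonitrile-quenched samples taken at t=0, 2, 5, 15, 30 min. Compound dosed at 1 µM final into plasma pre-warmed to 37 °C, pH set to 7.4 where required; incubations at 37 °C.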
# [9] = Plasma stability, mouse plasma; assay type: in vitro ADME; conditions: Table 2A, 37 °C, read-out: Plasma Stability Mouse t1/2
# Summary of the method: as §5
# [10] = Liver microsome stability, human; assay type: in vitro ADME; conditions: liver microsomes, pH 7.4, Table 2A, read-out: Microsome Stability Human t1/2
# Summary of the method: (§6)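 Remaining compound measured by LC/MS after acetonitrile/internal-standard quench at 0–60 min time points (0, 5, 10, 20, 30, 60). Incubations used mouse or human liver microsomes in pH 7.4 potassium phosphate/EDTA buffer with NADPH; a 60-min sample without NADPH served as control.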
# [11] = Liver microsome stability, mouse; assay type: in vitro ADME; conditions: liver microsomes, pH 7.4, Table 2A, read-out: Microsome Stability Mouse t1/2
# Summary of the method: as §6
# [12] = in vitro cleavage assays (Table 3A)
Structure (SMILES),Chemical Stability PBS % T0 at 2 hours at 37 °C. [1],"Chemical Stability SIF, no enzyme % T0 at 2 hours at 37 °C. [2]","Chemical Stability SGF, no enzyme % T0 at 2 hours at 37 °C. [3]",Prodrug Cleavage rFAAH d3-Crn release [4],Prodrug Cleavage rFAAH net d3-Cr release [4],Prodrug Cleavage Human BH d3-Crn release [5],Prodrug Cleavage Human BH net d3-Cr release [5],half-life [8],half-life [9],half-life at 10 μM [10],half-life at 10 μM [11],other results
"[2H]C([2H])([2H])N(CC(=O)[O-])C(=N)NC(=O)CCCCCCCCCCCCC.[Li+] [Compound 7, Lithium 2-(1-trideuteriomethyl-3-tetradecanoylguanidino) Acetate]",90%,77%,63%,1.7%,146.0%,0.8%,50.8%,–,–,–,–,"d3-Cr, Cellular Uptake (ARPE-19 cells): 18.6 nmol/mg protien; d3-Crn, Cellular Uptake (ARPE-19 cells): <0.2 nmol/mg protien; prodrug, Cellular Uptake (ARPE-19 cells): 13.1 nmol/mg protien"
"[2H]C([2H])([2H])N1CC(=O)OC(CCCCC)CCCCCC(=O)NC1=N (stereo not drawn) [Compound FF, 5-Imino-4-trideuteriomethyl-13-pentyl-1-oxa-4,6-diazacyclotridecane-2,7-dione]",–,–,–,–,–,–,–,–,–,–,–,Concentration of d3-Cr in CrT KO mice brain [6]: BLOQ
[2H]C([2H])([2H])N(CC(=O)[O-])C(=N)NC(=O)CCCCCCCCCC.[Na+] [Compound 4],69%,61%,94%,–,–,–,–,–,–,–,–,"crossing of BBB (in words) ([7]; CrT KO mice, IV dosing): did not seem to cross BBB; AUClast d3-Cr in the brain ([7]; IV 10 mg/kg, CrT KO mouse brain, BQL d3-Cr = 13.7 ng/mL): BQL; AUClast d3-Crn in the brain ([7]; IV 10 mg/kg, CrT KO mouse brain, BQL d3-Crn = 1.5 ng/mL): BQL; AUClast prodrug in the brain ([7]; IV 10 mg/kg, CrT KO mouse brain, BQL prodrug = 41.2 ng/mL): BQL"
[2H]C([2H])([2H])N(CC(=O)[O-])C(=N)NC(=O)CCC/C=C\C/C=C\C/C=C\C/C=C\CCCCC.[Na+] [Compound 22],35%,86%,30%,–,–,–,–,2.17 h,> 3 h,0.4 h,0.15 h,–
Cl.[2H]C([2H])([2H])N(CC(=O)OC(C)C)C(=N)NC(=O)CCCCCCCCCCCC [Compound 10-HCl],11%,46%,83%,217.0%,1.2%,251.5%,4.3%,–,–,–,–,"d3-Cr release in vitro (in words) [5, 12]: small amount of d3-Cr; d3-Crn (creatinine) cyclization in vitro (in words) [5, 12]: predominantly cyclized into creatinine; also recorded: predominantly creatinine cyclization; d3-Cr/d3-Crn release ratio in vivo (in words) ([7]; brain, CrT KO mice): favorable d3-Cr/d3-Crn ratio"
[2H]C([2H])([2H])N(CC(=O)[O-])C(=N)NC(=O)CCCCC/C=C\CCCCCCCCCC.[Li+] [Compound 24],150%,74%,39%,–,–,–,–,> 3 h,> 3 h,1.3 h,1.37 h,–

# — patent publication US11332438B2, “Creatine prodrugs, compositions and methods of use thereof” (Ultragenyx Pharmaceutical Inc., priority 2017, dated 2022)
